Data from US20060034856A1, “Epha2 antigen t epitopes” (priority 2002, published 2006).
Values belong to the molecule of their own block, whether it stands above or below them. Ends that are not written are not given here.

Legend:
HLA-A*0201 [1] = biological target: T1, HLA-A*0201 (Homo sapiens, UniProt P04439, D140Y/D185E/D98H/E176V/E277Q/G131W/G231S/I119V/I121R/I166T/I218V/L300P/L318F/N151K/N90K/P208A/P217A/Q86G/Q94H/R138H/R169H/T345S); conditions: ratio of peptide to reference peptide (HIVpol 589) concentration inducing 20% of fluorescence of 100 μM reference; T2 cells; lower RA = stronger binding; mean of at least three experiments
Description: (§1) The immunogenicity of these peptides was evaluated by measuring their affinity for HLA-A*0201. This is defined by two parameters: the relative affinity (RA) which reflects the ability of the peptides to bind to HLA-A*0201, and the rate of dissociation of the HLA-A*0201/peptide complexes (DC50), which reflects their stability.
Human T2 cells (Firat et al., Eur. J. Immunol., 29, 3112, 1999) (3×10^5 cells/ml), which are deficient in TAP transporters, are incubated at 37° C. for 16 hours with various concentrations (100 μM, 10 μM, 1 μM, 0.1 μM) of each test peptide, in serum-free RPMI 1640 medium supplemented with 100 ng/ml of human β2-microglobulin. Next, they are washed twice and labeled with the monoclonal antibody BB7.2 (Parham et al., Hum. Immunol., 3, 4, 277-299, 1981) which is specific for the HLA-A*0201 molecule, and then with a goat anti-mouse Ig antibody coupled to fluorescein isothiocyanate (FITC).
These cells are then analyzed by flow cytometry. […] The relative affinity (RA) is defined as the ratio of the concentration of each peptide that induces 20% of the fluorescence obtained with 100 μM of the reference peptide, to the concentration of the reference peptide that induces 20% of the fluorescence obtained with 100 μM of said reference peptide. […] The mean RA for each peptide is determined from at least three independent experiments.

HLA-A*0201 [2] = biological target: T1, HLA-A*0201; assay: Stability of HLA-A*0201/peptide complexes (DC50) on T2 cells; format: binding; parameters: endogenous in cells; host or cells: human T2 cells (TAP-deficient); conditions: time for loss of 50% of HLA-A*0201/peptide complexes stabilized at t=0, 100 μM peptide, 37° C.
Description: as §1, with “stability. The high-affinity peptides (RA<5 and DC50>2 hrs) are potentially immunogenic, unlike the low-affinity peptides (RA>5 and DC50<2 hrs).” for “stability.”
T2 cells (10^6/ml) are incubated overnight at 37° C. with 100 μM of each test peptide, in serum-free RPMI 1640 medium supplemented with 100 ng/ml of human β2-microglobulin. Next, they are washed four times in order to remove the free peptides, incubated with BREFELDIN A (Sigma; 10 μg/ml) for one hour in order to prevent the expression at their surface of newly synthesized HLA-A*0201 molecules, washed, and incubated at 37° C. for 0, 2, 4, 6 or 8 hours in the presence of BREFELDIN A (0.5 μg/ml). For each incubation time, the cells are then labeled, as indicated above, with the BB7.2 antibody and analyzed by flow cytometry in order to evaluate the amount of peptide/HLA-A*0201 complex present at their surface. This amount is evaluated by means of the formula: (mean fluorescence of the T2 cells preincubated with the peptide−mean fluorescence of the T2 cells treated under similar conditions in the absence of peptide). The DC50 (dissociation complex: DC) is defined as being the time (in hours) required for the loss of 50% of the HLA-A*0201/peptide complexes which are stabilized at t=0.

[3] = biological target: T2, HLA-A*0201 molecule on human T2 cells (human); assay: T2 cell HLA-A*0201 stabilisation, flow cytometry with BB7.2; peptide concentration giving 20% of reference fluorescence, relative to HIVpol 589
T2 construct: MHC class I molecule on T2 cells

- DC50 (HLA-A*0201 [2]): 2 to 4 h
Molecule: TLADFDPRV [p883, TLADFDPRV]

- RA (relative affinity) [3]: 1.5 ratio to reference peptide
B1: p61Y variant peptide (peptide)
peptide: YMPIYMYSV
notes: Variant of p61 in which the N-terminal aspartic acid is replaced by tyrosine

- RA (relative affinity) [3]: 1.4 ratio to reference peptide
B3: p546 peptide of EphA2 (peptide)
peptide: VLLLVLAGV
notes: Synthetic 9-mer fragment of the human EphA2 antigen

- RA (relative affinity) [3]: 2.2 ratio to reference peptide
B4: p883 peptide of EphA2 (peptide)
peptide: TLADFDPRV
notes: as for B3

- RA (relative affinity) [3]: 1 ratio to reference peptide
B5: p550 peptide of EphA2 (peptide)
peptide: VLAGVGFFI
notes: as for B3

The next lines start with the molecule.

Molecule: DMPIYMYSV [p61]
- RA (relative affinity) (HLA-A*0201 [1]): >10

Molecule: IMNDMPIYM [p58, IMNDMPIYM]
- RA (relative affinity) (HLA-A*0201 [1]): 1
- DC50 (HLA-A*0201 [2]): 4 h

Molecule: VLAGVGFFI [p550, VLAGVGFFI]
- RA (relative affinity) (HLA-A*0201 [1]): 1
- DC50 (HLA-A*0201 [2]): 4 to 6 h

Molecule: VLLLVLAGV [p546, VLLLVLAGV]
- RA (relative affinity) (HLA-A*0201 [1]): 1.4
- DC50 (HLA-A*0201 [2]): 4 to 6 h

Molecule: YMPIYMYSV [p61Y, YMPIYMYSV]
- RA (relative affinity) (HLA-A*0201 [1]): 1.5

B2: p58 peptide of EphA2 (peptide)
peptide: IMNDMPIYM
notes: Synthetic 9-mer fragment of the human EphA2 antigen (SYNT:EM), purity >85%
- RA (relative affinity) [3]: 1 ratio to reference peptide
